Several values for one entry are separate records, joined by “and”; a condition that tells them apart may be missing. Equal entries are not always repeated.

Chain of recombinant mTOR (P42345 1362-2549): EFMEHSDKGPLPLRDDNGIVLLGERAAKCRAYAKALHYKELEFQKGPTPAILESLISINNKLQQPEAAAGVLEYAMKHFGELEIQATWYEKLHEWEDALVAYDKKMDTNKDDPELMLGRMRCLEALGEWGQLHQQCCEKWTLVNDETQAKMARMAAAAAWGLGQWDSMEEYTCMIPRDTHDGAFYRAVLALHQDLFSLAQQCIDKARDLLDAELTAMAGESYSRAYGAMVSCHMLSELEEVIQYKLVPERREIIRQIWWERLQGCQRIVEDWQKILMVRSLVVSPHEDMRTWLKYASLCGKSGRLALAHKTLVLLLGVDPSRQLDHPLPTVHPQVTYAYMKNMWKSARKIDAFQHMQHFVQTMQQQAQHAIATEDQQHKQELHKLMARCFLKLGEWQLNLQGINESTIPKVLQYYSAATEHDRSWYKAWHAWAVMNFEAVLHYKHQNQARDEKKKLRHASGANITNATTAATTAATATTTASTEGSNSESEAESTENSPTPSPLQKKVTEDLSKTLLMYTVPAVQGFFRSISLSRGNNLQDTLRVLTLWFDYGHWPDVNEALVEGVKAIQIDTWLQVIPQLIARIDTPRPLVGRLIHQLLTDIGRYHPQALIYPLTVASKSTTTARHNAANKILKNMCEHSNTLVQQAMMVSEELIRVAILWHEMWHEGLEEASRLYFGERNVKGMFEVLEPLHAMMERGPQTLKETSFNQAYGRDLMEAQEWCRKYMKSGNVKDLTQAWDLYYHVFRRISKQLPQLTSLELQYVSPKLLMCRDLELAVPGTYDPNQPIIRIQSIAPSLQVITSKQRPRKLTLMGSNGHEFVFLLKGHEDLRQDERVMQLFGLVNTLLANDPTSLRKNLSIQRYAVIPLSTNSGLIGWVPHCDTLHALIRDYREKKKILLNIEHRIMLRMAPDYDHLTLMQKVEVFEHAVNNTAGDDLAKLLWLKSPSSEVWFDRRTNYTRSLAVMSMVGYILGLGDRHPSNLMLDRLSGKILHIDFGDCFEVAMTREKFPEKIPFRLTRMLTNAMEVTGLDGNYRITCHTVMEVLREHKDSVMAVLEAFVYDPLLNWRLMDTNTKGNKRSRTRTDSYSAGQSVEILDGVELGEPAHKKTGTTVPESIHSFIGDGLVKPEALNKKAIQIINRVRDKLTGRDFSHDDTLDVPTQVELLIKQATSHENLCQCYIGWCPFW

The target in the first experiment is T1, PI3K.
T1 construct: full length DNA of each of the p110α, p110β and p110δ Type Ia human PI3K p110 isoforms
T1 sequence (P42336 whole entry, canonical isoform): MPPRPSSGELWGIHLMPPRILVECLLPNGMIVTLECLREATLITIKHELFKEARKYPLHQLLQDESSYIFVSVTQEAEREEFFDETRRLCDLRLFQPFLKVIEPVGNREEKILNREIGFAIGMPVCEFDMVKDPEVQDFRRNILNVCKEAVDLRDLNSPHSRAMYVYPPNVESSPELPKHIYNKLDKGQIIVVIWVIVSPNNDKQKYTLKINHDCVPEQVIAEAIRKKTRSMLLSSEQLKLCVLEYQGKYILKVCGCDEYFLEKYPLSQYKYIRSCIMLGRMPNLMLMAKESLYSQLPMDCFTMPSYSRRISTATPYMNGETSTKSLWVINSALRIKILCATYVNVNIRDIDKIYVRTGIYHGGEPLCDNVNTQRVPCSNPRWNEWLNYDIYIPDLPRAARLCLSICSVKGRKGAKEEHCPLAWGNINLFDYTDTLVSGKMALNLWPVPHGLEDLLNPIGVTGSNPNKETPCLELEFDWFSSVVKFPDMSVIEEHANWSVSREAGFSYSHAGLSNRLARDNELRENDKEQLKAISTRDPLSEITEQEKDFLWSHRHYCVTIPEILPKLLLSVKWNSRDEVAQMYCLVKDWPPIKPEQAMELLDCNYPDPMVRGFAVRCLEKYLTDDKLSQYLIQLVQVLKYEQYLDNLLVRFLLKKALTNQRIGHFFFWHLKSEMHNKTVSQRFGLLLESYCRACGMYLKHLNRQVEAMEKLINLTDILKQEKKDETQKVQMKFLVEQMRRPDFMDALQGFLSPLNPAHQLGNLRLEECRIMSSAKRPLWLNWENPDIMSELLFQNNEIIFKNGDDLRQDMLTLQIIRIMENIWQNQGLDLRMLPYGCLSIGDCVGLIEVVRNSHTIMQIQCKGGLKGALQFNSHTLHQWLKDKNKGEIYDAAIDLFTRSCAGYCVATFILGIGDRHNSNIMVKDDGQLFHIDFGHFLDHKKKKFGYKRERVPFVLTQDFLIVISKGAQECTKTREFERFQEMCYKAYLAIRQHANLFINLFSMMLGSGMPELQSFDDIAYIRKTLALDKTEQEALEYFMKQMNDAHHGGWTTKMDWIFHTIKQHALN
T1 sequence (P27986 2-724, further chain): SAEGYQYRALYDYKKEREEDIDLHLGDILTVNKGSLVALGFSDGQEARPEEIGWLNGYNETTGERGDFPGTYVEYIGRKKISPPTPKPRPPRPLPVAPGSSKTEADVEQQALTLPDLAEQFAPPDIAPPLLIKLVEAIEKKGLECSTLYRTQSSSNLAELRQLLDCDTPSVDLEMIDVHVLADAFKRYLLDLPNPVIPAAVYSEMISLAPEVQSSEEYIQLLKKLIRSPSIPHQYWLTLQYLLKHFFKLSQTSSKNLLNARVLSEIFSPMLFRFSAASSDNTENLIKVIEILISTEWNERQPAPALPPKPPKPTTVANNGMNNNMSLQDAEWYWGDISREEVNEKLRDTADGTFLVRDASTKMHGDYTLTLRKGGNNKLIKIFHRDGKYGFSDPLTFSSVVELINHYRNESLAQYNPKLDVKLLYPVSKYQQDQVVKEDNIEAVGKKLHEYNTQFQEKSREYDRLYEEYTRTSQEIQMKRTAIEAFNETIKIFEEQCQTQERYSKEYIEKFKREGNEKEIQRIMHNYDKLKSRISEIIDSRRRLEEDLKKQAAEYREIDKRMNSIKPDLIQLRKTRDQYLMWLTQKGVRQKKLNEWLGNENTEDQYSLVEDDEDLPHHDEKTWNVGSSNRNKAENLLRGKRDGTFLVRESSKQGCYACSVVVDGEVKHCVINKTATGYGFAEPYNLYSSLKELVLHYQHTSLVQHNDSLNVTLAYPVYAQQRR
Put plainly: In vitro PI3K enzyme assay, Test (b)(i) (AlphaScreen). Type of experiment: biochemical, human. The note with it: single values measured on two occasions; isoform (p110α or p110γ) not clearly stated; read-out: IC50 versus PI3K, Test (b)(i). From the text:
(b)(i) In Vitro PI3K Enzyme Assay
(In general: Alpha assays give light when donor and acceptor beads are brought close together.)
Broadly, the IC50 is the midpoint of a concentration-inhibition curve. For the compound `C[C@H]1COCCN1c1cc(CS(C)(=O)=O)nc(-c2ccc3cc[nH]c3c2)n1` [Example 35, 6-[4-[(3S)-3-Methylmorpholin-4-yl]-6-(methylsulfonylmethyl)pyrimidin-2-yl]-1H-indole], the IC50 came out at 37000 nM.

The test system of a further experiment is Serine 473 in Akt. Put plainly: In vitro phospho-Ser473 Akt assay, Test (c). Type of experiment: cell-based. The note with it: Homo sapiens; MDA-MB-468 cells; read-out: IC50 versus Serine 473 in Akt, Test (c). As to the method:
(c) In Vitro phospho-Ser473 Akt Assay
This assay determines the ability of test compounds to inhibit phosphorylation of Serine 473 in Akt as assessed using Acumen Explorer technology (Acumen Bioscience Limited), a plate reader that can be used to rapidly quantitate features of images generated by laser-scanning.
A MDA-MB-468 human breast adenocarcinoma cell line (LGC Promochem, Teddington, Middlesex, UK, Catalogue No. HTB-132) was routinely maintained at 37° C. with 5% CO2 up to a confluency of 70-90% in DMEM containing 10% heat-inactivated FCS and 1% L-glutamine.
For the assay, the cells were detached from the culture flask using ‘Accutase’ (Innovative Cell Technologies Inc., San Diego, Calif., USA; Catalogue No. AT104) using standard tissue culture methods and resuspended in media to give 1.7×10^5 cells per mL. […]
All subsequent aspiration and wash steps were carried out using a Tecan 96 well plate washer (aspiration speed 10 mm/sec). […] An aliquot of PBS (50 μl) was added to each well and the plates were sealed with black plate sealers and the fluorescence signal was detected and analysed.
Fluorescence dose response data obtained with each compound were analysed and the degree of inhibition of Serine 473 in Akt was expressed as an IC50 value.
Regarding `C[C@H]1COCCN1c1cc(CS(C)(=O)=O)nc(-c2ccc3cc[nH]c3c2)n1` [Example 35, 6-[4-[(3S)-3-Methylmorpholin-4-yl]-6-(methylsulfonylmethyl)pyrimidin-2-yl]-1H-indole], the IC50 was 3360 nM.

The target of another experiment is recombinant mTOR (Homo sapiens, UniProt P42345). Put plainly: In vitro mTOR kinase assay, Test (a)(i) (AlphaScreen). Type of experiment: biochemical. To be noted: enzyme assay; values may represent the average of two or more measurements; read-out: Test (a)(i) IC50. As to the method:
(a)(i) In Vitro mTOR Kinase Assay
The HEK293 FLAG-tagged mTOR (1362-2549) stable cell line was routinely maintained at 37° C. with 5% CO2 up to a confluency of 70-90% in Dulbecco's modified Eagle's growth medium (DMEM; Invitrogen Limited, Paisley, UK Catalogue No. 41966-029) containing 10% heat-inactivated foetal calf serum (FCS; Sigma, Poole, Dorset, UK, Catalogue No. F0392), 1% L-glutamine (Gibco, Catalogue No. 25030-024) and 2 mg/ml Geneticin (G418 sulfate; Invitrogen Limited, UK Catalogue No. 10131-027). Following expression in the mammalian HEK293 cell line, expressed protein was purified using the FLAG epitope tag using standard purification techniques.
A 30 μl mixture of recombinant purified mTOR enzyme, 1 μM biotinylated peptide substrate (Biotin-Ahx-[…]NH2; Bachem UK Ltd), ATP (20 μM) and a buffer solution [comprising Tris-HCl pH7.4 buffer (50 mM), EGTA (0.1 mM), bovine serum albumin (0.5 mg/mL), DTT (1.25 mM) and manganese chloride (10 mM)] was agitated at room temperature for 90 minutes.
These assay solutions were incubated for 2 hours at room temperature.
Phosphorylated biotinylated peptide is formed in situ as a result of mTOR mediated phosphorylation. The phosphorylated biotinylated peptide that is associated with AlphaScreen Streptavidin donor beads forms a complex with the p70 S6 Kinase (T389) 1A5 Monoclonal Antibody that is associated with Alphascreen Protein A acceptor beads. […] Accordingly, the presence of mTOR kinase activity results in an assay signal. In the presence of an mTOR kinase inhibitor, signal strength is reduced.
On to `C[C@H]1COCCN1c1cc(CS(C)(=O)=O)nc(-c2ccc3cc[nH]c3c2)n1` [Example 35, 6-[4-[(3S)-3-Methylmorpholin-4-yl]-6-(methylsulfonylmethyl)pyrimidin-2-yl]-1H-indole], for which the concentration for half-maximal inhibition (IC50) is 478 nM. As to `CCC(C)[S+]([O-])Cc1cc(N2CCOC[C@H]2C)nc(-c2ccc3[nH]ccc3c2)n1` (stereo partly drawn) [Example 27, 5-[4-(butan-2-ylsulfinylmethyl)-6-[(3R)-3-methylmorpholin-4-yl]pyrimidin-2-yl]-1H-indole], the IC50 is 1170 nM.

As to `C[C@H]1COCCN1c1cc(CS(=O)(=O)c2ccccc2)nc(-c2ccc3[nH]cnc3c2)n1` [Example 48, 5-[4-(benzenesulfonylmethyl)-6-[(3S)-3-methylmorpholin-4-yl]pyrimidin-2-yl]-1H-benzoimidazole], the IC50 was 108 nM. Still for that read-out and setting: the result for `C[C@H]1COCCN1c1cc(CS(C)(=O)=O)nc(-c2ccc3cc(C(N)=O)[nH]c3c2)n1` [Example 38, 6-[4-[(3S)-3-Methylmorpholin-4-yl]-6-(methylsulfonylmethyl)pyrimidin-2-yl]-1H-indole-2-carboxamide] reads 5350 nM; that for `C[C@H]1COCCN1c1cc(CS(=O)(=O)c2ccccc2)nc(-c2cnc3[nH]ccc3c2)n1` [Example 46, 3-[4-(benzenesulfonylmethyl)-6-[(3S)-3-methylmorpholin-4-yl]pyrimidin-2-yl]-5,7-diazabicyclo[4.3.0]nona-1,3,5,8-tetraene], 932 nM; that for `C[C@H]1COCCN1c1cc(C(C)(C)S(C)(=O)=O)nc(-c2cccc3[nH]ccc23)n1` [Example 42, 4-[4-[(3S)-3-methylmorpholin-4-yl]-6-(2-methylsulfonylpropan-2-yl)pyrimidin-2-yl]-1H-indole], 335 nM. `C[C@H]1COCCN1c1cc(CS(C)(=O)=O)nc(-c2ccc3c(C(N)=O)c[nH]c3c2)n1` [Example 36, 6-[4-[(3S)-3-Methylmorpholin-4-yl]-6-(methylsulfonylmethyl)pyrimidin-2-yl]-1H-indole-3-carboxamide]: the IC50 is 1640 nM. The same measure, in the same setting: for `COc1ccccc1C(=O)Nc1cc(N2CCOC[C@@H]2C)nc(N2CCOC[C@@H]2C)n1` [Example 9, N-[2,6-Bis[(3S)-3-methylmorpholin-4-yl]pyrimidin-4-yl]-2-methoxy-benzamide] the value was 894 nM; for `CC(=O)Nc1cc(C(=O)Nc2cc(N3CCOC[C@@H]3C)nc(N3CCOC[C@@H]3C)n2)ccn1` [Example 10, 2-Acetamido-N-[2,6-bis[(3S)-3-methylmorpholin-4-yl]pyrimidin-4-yl]pyridine-4-carboxamide], 26400 nM; for `C[C@H]1COCCN1c1cc(N2CCOC[C@@H]2C)nc(NC(=O)c2ccc(NC(=O)Nc3ccccc3)cc2)n1` [Example 18, N-[4,6-Bis[(3S)-3-methylmorpholin-4-yl]pyrimidin-2-yl]-4-(phenylcarbamoylamino)benzamide], 1120 nM. Same read-out and setting: for `COc1ccc(C(=O)Nc2cc(N3CCOC[C@@H]3C)nc(N3CCOC[C@@H]3C)n2)cc1C(F)(F)F` [Example 2, N-[2,6-Bis[(3S)-3-methylmorpholin-4-yl]pyrimidin-4-yl]-4-methoxy-3-(trifluoromethyl)benzamide] the value was 236 nM. Take `COc1ccc(C(=O)Nc2nc(N3CCOC[C@@H]3C)cc(N3CCOC[C@@H]3C)n2)cc1` [Example 1, N-[4,6-Bis[(3S)-3-methylmorpholin-4-yl]pyrimidin-2-yl]-4-methoxy-benzamide]: the IC50 is 4650 nM. Still for that read-out and setting: for `CC(=O)Nc1cc(C(=O)Nc2nc(N3CCOC[C@@H]3C)cc(N3CCOC[C@@H]3C)n2)ccn1` [Example 15, 2-Acetamido-N-[4,6-bis[(3S)-3-methylmorpholin-4-yl]pyrimidin-2-yl]pyridine-4-carboxamide] the value was 9550 nM; for `C[C@H]1COCCN1c1cc(CS(C)(=O)=O)nc(Nc2cc[nH]n2)n1` [Example 30, 4-[(3S)-3-Methylmorpholin-4-yl]-6-(methylsulfonylmethyl)-N-(1H-pyrazol-3-yl)pyrimidin-2-amine], 897 nM; for `COc1cc(C(=O)Nc2nc(N3CCOC[C@@H]3C)cc(N3CCOC[C@@H]3C)n2)ccn1` [Example 12, N-[4,6-Bis[(3S)-3-methylmorpholin-4-yl]pyrimidin-2-yl]-2-methoxy-pyridine-4-carboxamide], 4000 nM.

`C[C@H]1COCCN1c1cc(CS(C)(=O)=O)nc(N2CCCC(O)C2)n1` (stereo partly drawn) [Example 21, 1-[4-[(3S)-3-Methylmorpholin-4-yl]-6-(methylsulfonylmethyl)pyrimidin-2-yl]piperidin-3-ol]: the IC50 stood at 2300 nM.

Still in this experiment, the particulars now being: single values measured on two occasions; read-out: IC50 versus mTOR kinase, Test (a)(i).
`C[C@H]1COCCN1c1cc(CS(C)(=O)=O)nc(-c2ccc3cc[nH]c3c2)n1` [Example 35, 6-[4-[(3S)-3-Methylmorpholin-4-yl]-6-(methylsulfonylmethyl)pyrimidin-2-yl]-1H-indole]: the IC50 was 566 nM and 404 nM.
